Measurements: ChEMBL document CHEMBL1131642, “Synthesis and antibacterial activity of O-methyl derivatives of azalide antibiotics: I. 4", 11 and 12-OMe derivatives via direct methylation” (1998)
Converted amounts (≈) assume the structure as drawn.

How the values were obtained:
Assay type in all cases: functional
Bacillus subtilis = assay: Minimum inhibitory concentration against macrolide susceptible strains of Bacillus subtilis (MB5586)
Enterococcus faecalis = assay: Minimum inhibitory concentration against macrolide susceptible strain of Enterococcus faecalis (MB5407)
Streptococcus pyogenes = assay: Minimum inhibitory concentration against macrolide susceptible strain of Streptococcus pyogenes (MB2874)
Staphylococcus aureus = assay: Minimum inhibitory concentration against macrolide susceptible strain of Staphylococcus aureus (MB2865)
Streptococcus pneumoniae = assay: Minimum inhibitory concentration against macrolide susceptible strain of Streptococcus pneumoniae (MB3957)
Enterococcus faecium = assay: Minimum inhibitory concentration against macrolide susceptible strain of Enterococcus faecium (MB5516)

Structure (SMILES) | MIC (Bacillus subtilis) | MIC (Enterococcus faecalis) | MIC (Streptococcus pyogenes) | MIC (Staphylococcus aureus) | MIC (Streptococcus pneumoniae) | MIC (Enterococcus faecium)
CC[C@H]1OC(=O)[C@H](C)[C@@H](O[C@H]2C[C@@](C)(OC)[C@@H](OC)[C@@H](C)O2)[C@H](C)[C@@H](O[C@@H]2O[C@H](C)C[C@@H](N(C)C)[C@H]2O)[C@](C)(O)C[C@@H](C)N(C)C[C@H](C)[C@@H](O)[C@]1(C)OC | 4 µg/mL (≈ 5.15 µM) | 16 µg/mL (≈ 20.6 µM) | 0.25 µg/mL (≈ 0.322 µM) | 8 µg/mL (≈ 10.3 µM) | 1 µg/mL (≈ 1.29 µM) | 4 µg/mL (≈ 5.15 µM)
CC[C@H]1OC(=O)[C@H](C)[C@@H](O[C@H]2C[C@@](C)(OC)[C@@H](OC)[C@@H](C)O2)[C@H](C)[C@@H](O[C@@H]2O[C@H](C)C[C@@H](N(C)C)[C@H]2O)[C@](C)(O)C[C@@H](C)N(C)C[C@H](C)[C@@H](O)[C@]1(C)O | 4 µg/mL (≈ 5.24 µM) | 8 µg/mL (≈ 10.5 µM) | 0.03 µg/mL (≈ 0.0393 µM) | 8 µg/mL (≈ 10.5 µM) | 0.5 µg/mL (≈ 0.655 µM) | 2 µg/mL (≈ 2.62 µM)
CC[C@H]1OC(=O)[C@H](C)[C@@H](O[C@H]2C[C@@](C)(OC)[C@H](O)[C@H](C)O2)[C@H](C)[C@@H](O[C@@H]2O[C@H](C)C[C@H](N(C)C)[C@H]2O)[C@](C)(O)C[C@@H](C)N(C)C[C@H](C)[C@@H](O)[C@]1(C)O | 0.3 µg/mL (≈ 0.401 µM) | 2 µg/mL (≈ 2.67 µM) | < 0.06 µg/mL | 0.3 µg/mL (≈ 0.401 µM) | < 0.06 µg/mL | 0.125 µg/mL (≈ 0.167 µM)
CC[C@H]1OC(=O)[C@H](C)[C@@H](O[C@H]2C[C@@](C)(OC)[C@@H](O)[C@@H](C)O2)[C@H](C)[C@@H](O[C@@H]2O[C@H](C)C[C@@H](N(C)C)[C@H]2O)[C@](C)(O)C[C@@H](C)CN(C)[C@H](C)[C@@H](OC)[C@]1(C)OC | 4 µg/mL (≈ 5.15 µM) | 16 µg/mL (≈ 20.6 µM) | 0.12 µg/mL (≈ 0.154 µM) | 8 µg/mL (≈ 10.3 µM) | 1 µg/mL (≈ 1.29 µM) | 2 µg/mL (≈ 2.57 µM)
CC[C@H]1OC(=O)[C@H](C)[C@@H](O[C@H]2C[C@@](C)(OC)[C@@H](O)[C@@H](C)O2)[C@H](C)[C@@H](O[C@@H]2O[C@H](C)C[C@@H](N(C)C)[C@H]2O)[C@](C)(O)C[C@@H](C)CN(C)[C@H](C)[C@@H](OC)[C@]1(C)O | 1 µg/mL (≈ 1.31 µM) | 8 µg/mL (≈ 10.5 µM) | 0.03 µg/mL (≈ 0.0393 µM) | 1 µg/mL (≈ 1.31 µM) | 0.03 µg/mL (≈ 0.0393 µM) | 0.5 µg/mL (≈ 0.655 µM)
CC[C@H]1OC(=O)[C@H](C)[C@@H](O[C@H]2C[C@@](C)(OC)[C@@H](OC)[C@@H](C)O2)[C@H](C)[C@@H](O[C@@H]2O[C@H](C)C[C@@H](N(C)C)[C@H]2O)[C@](C)(O)C[C@@H](C)N(C)C[C@H](C)[C@@H](OC)[C@]1(C)OC | 2 µg/mL (≈ 2.53 µM) | 32 µg/mL (≈ 40.5 µM) | 0.5 µg/mL (≈ 0.632 µM) | 32 µg/mL (≈ 40.5 µM) | 4 µg/mL (≈ 5.06 µM) | 8 µg/mL (≈ 10.1 µM)
CC[C@H]1OC(=O)[C@H](C)[C@@H](O[C@H]2C[C@@](C)(OC)[C@@H](O)[C@H](C)O2)[C@H](C)[C@@H](O[C@@H]2O[C@H](C)C[C@H](N(C)C)[C@H]2O)[C@](C)(O)C[C@@H](C)CN(C)[C@H](C)[C@@H](O)[C@]1(C)O [AZITHROMYCIN] | 1 µg/mL (≈ 1.34 µM) | 4 µg/mL (≈ 5.34 µM) | 0.03 µg/mL (≈ 0.0401 µM) | 0.5 µg/mL (≈ 0.668 µM) | < 0.06 µg/mL | 0.25 µg/mL (≈ 0.334 µM)
CC[C@H]1OC(=O)[C@H](C)[C@@H](O[C@H]2C[C@@](C)(OC)[C@@H](OC)[C@@H](C)O2)[C@H](C)[C@@H](O[C@@H]2O[C@H](C)C[C@@H](N(C)C)[C@H]2O)[C@](C)(O)C[C@@H](C)CN(C)[C@H](C)[C@@H](OC)[C@]1(C)OC | 8 µg/mL (≈ 10.1 µM) | 16 µg/mL (≈ 20.2 µM) | 0.25 µg/mL (≈ 0.316 µM) | 8 µg/mL (≈ 10.1 µM) | 1 µg/mL (≈ 1.26 µM) | 4 µg/mL (≈ 5.06 µM)
CC[C@H]1OC(=O)[C@H](C)[C@@H](O[C@H]2C[C@@](C)(OC)[C@@H](OC)[C@@H](C)O2)[C@H](C)[C@@H](O[C@@H]2O[C@H](C)C[C@@H](N(C)C)[C@H]2O)[C@](C)(O)C[C@@H](C)N(C)C[C@H](C)[C@@H](OC)[C@]1(C)O | 16 µg/mL (≈ 20.6 µM) | 32 µg/mL (≈ 41.2 µM) | 0.5 µg/mL (≈ 0.643 µM) | 32 µg/mL (≈ 41.2 µM) | 2 µg/mL (≈ 2.57 µM) | 16 µg/mL (≈ 20.6 µM)
CC[C@H]1OC(=O)[C@H](C)[C@@H](O[C@H]2C[C@@](C)(OC)[C@@H](O)[C@@H](C)O2)[C@H](C)[C@@H](O[C@@H]2O[C@H](C)C[C@@H](N(C)C)[C@H]2O)[C@](C)(O)C[C@@H](C)CN(C)[C@H](C)[C@@H](O)[C@]1(C)OC | – | 4 µg/mL (≈ 5.24 µM) | 0.03 µg/mL (≈ 0.0393 µM) | 1 µg/mL (≈ 1.31 µM) | 0.03 µg/mL (≈ 0.0393 µM) | 0.25 µg/mL (≈ 0.328 µM)
